Reference: article PMC12040169 (PLOS Biology, 2025)

Assay: in vitro
Settings: human, hela cells, % viability

SMILES	viability at 28.5 h, 10 µM [%]
COCCNc1nccnc1-c1ccccc1F [CBK038044]	97.6
CN1CCN(c2nc(-c3ccco3)cn3ccnc23)CC1 [CBK038045]	83.7
OCc1ccccc1-c1nccnc1NCc1ccc2c(c1)OCO2 [CBK038046]	95.7
c1ccc2c(-c3cn4ccnc4c(NC4CCOCC4)n3)cccc2c1 [CBK038047]	89.9
COc1ccc(-c2nccnc2NCC2CC2)cc1 [CBK038048]	95.7
COc1ccc(C(C)C)cc1-c1cn2ccnc2c(Nc2cccc(OC(F)(F)C(F)F)c2)n1 [CBK038049]	95.9
CN1CCN(c2nccnc2-c2ccco2)CC1 [CBK038050]	86.7
O=C(O)c1cccc(-c2cn3ccnc3c(N3CCOCC3)n2)c1 [CBK038053]	84
Clc1ccccc1-c1nccnc1NCCc1ccncc1 [CBK038055]	98.1
c1coc(-c2nccnc2NCc2ccncc2)c1 [CBK038059]	105
COc1cc(CNc2nccnc2-c2cccnc2)cc(OC)c1 [CBK038061]	105
COc1cc(-c2nccnc2NCc2ccc(OC(F)(F)F)cc2)cc(OC)c1OC [CBK038063]	117
COc1ccc(-c2cc(C(=O)Nc3cccc(C(=O)O)c3)cnc2-c2ccc(F)cc2)cn1 [CBK038064]	91.3
CS(=O)(=O)CCNC(=O)c1cnc(-c2ccc(F)cc2)c(-c2cccnc2)c1 [CBK038066]	88
CN(Cc1ccccc1)c1nccnc1-c1ccc(CO)cc1 [CBK038067]	101
COc1ncc(-c2nccnc2NCCc2ccncc2)c(OC)n1 [CBK038074]	96.7
Oc1cccc(-c2cn3ccnc3c(NC3CC3)n2)c1 [CBK038076]	101
COc1ccccc1-c1nccnc1N[C@H](C)c1ccccc1 [CBK038083]	107
c1coc(-c2nccnc2NCCCN2CCOCC2)c1 [CBK038086]	96.8
Fc1ccccc1-c1nccnc1NCc1cccs1 [CBK038088]	106
COc1cc(Nc2nc(-c3cccc(NC(C)=O)c3)cn3ccnc23)cc(OC)c1OC [CBK038093]	99.7
Nc1nnc(C(F)(F)F)s1 [CBK038099]	119

SMILES	viability at 28.5 h, 10 µM [%]
CCCNC(=O)Cc1sccc1NS(=O)(=O)c1ccc(C)cc1 [CBK038118]	83
CS(=O)(=O)Nc1ccc(CC#N)cc1 [CBK038145]	114
CN1C(=O)c2ccc(NS(C)(=O)=O)cc2C1=O [CBK038158]	104
COc1ccc([C@@]23CC[C@@H](NC(=O)Nc4cccc(Br)c4)C[C@@H]2N(C)CC3)cc1OC [CBK038225T]	91.4
CC(=O)Oc1cccc(C(=O)O)c1C [CBK038235]	87.7
COc1ccccc1N1CCN(c2nccc3sc(S(=O)(=O)NC4CCC4)cc23)CC1 [CBK038248C]	87.7
CCCCCCc1ccc(NS(=O)(=O)c2cc3c(NCCN(C)C)nccc3s2)cc1 [CBK038253C]	100
COc1ccccc1N1CCN(c2nccc3sc(S(=O)(=O)NCc4ccc(C(F)(F)F)c(F)c4)cc23)CC1 [CBK038270C]	93.8
CCCCN1CCC(CNc2nccc3sc(S(=O)(=O)NC4CCC4)cc23)CC1 [CBK038275C]	95.9
CC(O)C(=O)NS(=O)(=O)c1ccccc1 (stereo not shown) [CBK038300]	104
CC(=O)c1sccc1NS(=O)(=O)c1ccccc1 [CBK038384]	92.5
Cc1ccc(F)c(NS(=O)(=O)Cc2ccccc2)c1 [CBK038438]	111
O=S(=O)(c1cccc2nsnc12)N1CCCN(Cc2ccsc2)CC1 [CBK038570]	105
CC1(C)COC(=O)N1C1CCN(C(=O)c2cncc(Br)c2)CC1 [CBK038781]	81.6
Fc1ccc(C2(CCCN3CCN(c4ccncc4)CC3)OCCO2)cc1 [CBK038887]	111
Cc1ccc(S(=O)(=O)Nc2cccc(C(=O)O)c2)cc1 [CBK038891]	84.1
Cc1noc(C)c1S(=O)(=O)Nc1cccc(C(=O)O)c1 [CBK038902]	102
COc1ccc(/C=C(\C)C(=O)Nc2ccc(N3CCNCC3)c3ccccc23)cc1OC [CBK038913T]	92.4
Cc1onc(-c2ccccc2)c1C(=O)Nc1ccccc1N1CCCNCC1 [CBK038929T]	96.9
COc1ccc(/C=C(\C)C(=O)Nc2cc3ccccc3c(N3CCNCC3)n2)cc1OC [CBK038937T]	82.1
Cc1oc(-c2ccccc2)cc1C(=O)Nc1ccccc1N1CCCNCC1 [CBK038940T]	83.5
Cc1onc(-c2ccccc2)c1C(=O)Nc1ccc(N2CCNCC2)c2ccccc12 [CBK038942T]	87

SMILES	viability at 28.5 h, 10 µM [%]
O=C(Nc1ccc(N2CCNCC2)c2ccccc12)c1coc2c1C(=O)CCC2 [CBK038946T]	81.5
Cc1ccc(S(=O)(=O)Nc2cccc(C(=O)N3CCN(C)CC3)c2)cc1[N+](=O)[O-] [CBK038976]	89.5
O=C(Nc1ccc(F)cc1)c1cccc(NS(=O)(=O)c2cc(Cl)sc2Cl)c1 [CBK038980]	95.8
COc1ccc(Br)cc1S(=O)(=O)Nc1cccc(C(=O)Nc2ccc(F)cc2)c1 [CBK038981]	75.4
COc1ccc(S(=O)(=O)Nc2cccc(C(=O)Nc3ccc(F)cc3)c2)cc1OC [CBK038982]	71.7
Cc1c(Cl)cccc1S(=O)(=O)Nc1cccc(C(=O)Nc2ccc(F)cc2)c1 [CBK038983]	99.3
O=C(c1cccc(NS(=O)(=O)Cc2ccccc2)c1)N1CCOCC1 [CBK038991]	91
O=C(c1cccc(NS(=O)(=O)c2cc(F)c(Br)cc2F)c1)N1CCOCC1 [CBK039007]	86.7
COc1ccc(S(=O)(=O)Nc2cccc(C(=O)N3CCOCC3)c2)cc1OC [CBK039010]	82.7
CCCc1ccc(S(=O)(=O)Nc2cccc(C(=O)N3CCN(C)CC3)c2)cc1 [CBK039034]	122
COC(=O)c1ccsc1NS(=O)(=O)c1ccc(F)cc1 [CBK039060]	89.7
COC(=O)c1ccsc1NS(=O)(=O)c1ccc(C)c([N+](=O)[O-])c1 [CBK039061]	92.2
COC(=O)c1ccsc1NS(=O)(=O)c1cc(Cl)sc1Cl [CBK039062]	88.2
COC(=O)c1ccsc1NS(=O)(=O)c1ccc(Oc2ccccc2)cc1 [CBK039064]	108
COC(=O)c1ccsc1NS(=O)(=O)c1cc(Br)ccc1OC [CBK039065]	86.8
COC(=O)c1ccsc1NS(=O)(=O)c1cc(F)c(Br)cc1F [CBK039068]	96.5
O=S(=O)(Nc1cccc(C(F)(F)F)c1)c1cc2c(N3CCNCC3)nccc2s1 [CBK039085C]	103
Cc1cc2cc(F)ccc2n1CCCN1CCN(c2ccncc2)CC1 [CBK039119G]	116
Nc1nnc(C2CCCCC2)s1 [CBK039123]	84.5
O=S(=O)(Cc1cccc(C(F)(F)F)c1)c1csc2ccnc(N3CCNCC3)c12 [CBK039166C]	92
CC(C)N(C)CCOc1ncccc1OCCO [CBK039171]	104
Cn1c(-c2ccc(CN3CCCC3)cc2)nc2onc(-c3ccccc3)c2c1=O [CBK039188C]	95.2

SMILES	viability at 28.5 h, 10 µM [%]
Cc1ccc(C(=O)N2CN(C(=O)CN3CCOCC3)CC(C)(C)C2)cc1 [CBK039190]	105
Nc1ccc2ccc(Cl)nc2n1 [CBK039198]	113
COc1cccc2c3c([nH]c12)C1(CCCN(CCc2ccc(F)cc2)C1)NCC3 (stereo not shown) [CBK039251]	97.9
Cc1cccc2c3c([nH]c12)C1(CCCN(Cc2ccc(F)cc2Cl)C1)NCC3 (stereo not shown) [CBK039339]	90
COc1ccc2[nH]c3c(c2c1)CCNC31CCCN(Cc2ccc(OC(F)(F)F)cc2)C1 (stereo not shown) [CBK039387]	113
Cc1ccc2c(c1)CC(=O)NC21CCN(Cc2cccc(Br)c2)CC1 [CBK039392]	94.7
O=CN1CCc2c([nH]c3ccccc23)C12CCCN(CCOc1ccccc1)C2 (stereo not shown) [CBK039412]	93.3
COc1cccc2c3c([nH]c12)C1(CCN(CCOc2ccccc2)CC1)N(C=O)CC3 [CBK039423]	112
COc1ccc2[nH]c3c(c2c1)CCN(C=O)C31CCCN(CCC#N)C1 (stereo not shown) [CBK039445]	107
COc1ccc2[nH]c3c(c2c1)CCNC31CCN(CC(=O)C(C)(C)C)CC1 [CBK039471]	98.1
CC(C)(C)C(=O)CN1CCC2(CC1)NCCc1c2[nH]c2cc(F)ccc12 [CBK039568]	90.2
O=CN1CCc2c([nH]c3ccccc23)C12CCN(CCCN1C(=O)C3CCCCC3C1=O)C2 (stereo not shown) [CBK039592]	114
O=CN1CCc2c([nH]c3cc(F)ccc23)C12CCN(CCc1ccc3c(c1)OCO3)CC2 [CBK039614]	86.5
COc1ccc2[nH]c3c(c2c1)CCN(C(C)=O)C31CCN(CCOc2ccccc2)C1 (stereo not shown) [CBK039626]	85.5
COc1cccc(CN2CCCC3(C2)c2[nH]c4ccccc4c2CCN3C(C)=O)c1 (stereo not shown) [CBK039634]	86.4
CC(=O)N1CCc2c([nH]c3c(C)cccc23)C12CCN(CCOc1ccccc1)C2 (stereo not shown) [CBK039646]	85.4
Fc1ccc2c3c([nH]c2c1)C1(CCN(Cc2cc(F)c(F)c(F)c2)CC1)NCC3 [CBK039688]	108
COc1cccc2c3c([nH]c12)C1(CCN(CCCC#N)CC1)N(C(C)=O)CC3 [CBK039722]	99.6
COc1ccc2[nH]c3c(c2c1)CCNC31CCN(Cc2ccc(S(C)(=O)=O)cc2)CC1 [CBK039753]	88.8
CC(=O)N1CCc2c([nH]c3ccccc23)C12CCN(CCc1ccccc1)CC2 [CBK039757]	78.8
COc1cccc(CN2CCCC3(C2)NCCc2c3[nH]c3cc(F)ccc23)c1 (stereo not shown) [CBK039786]	87.5
N#CCCN1CCC2(CC1)NCCc1c2[nH]c2ccccc12 [CBK039788]	89
